Values quoted from earlier work, collected in US20190274986A1, “STERILE INJECTABLE COMPOSITION COMPRISING MELPHALAN” (CADILA HEALTHCARE LIMITED, priority 2018, published 2019).
Like-named read-outs stand apart in the source and are kept apart here.

Legend:
[1] = not given; remark: listed apart in the source

**Q.** Which Solubility (in 1 N HCl) does the source give for `Cl.N[C@@H](Cc1ccc(N(CCCl)CCCl)cc1)C(=O)O` [Melphalan, 4-[bis(2-chloroethyl)amino]-L-phenylalanine hydrochloride] here?
**A.** freely soluble

**Q.** And the Solubility (in methanol)?
**A.** freely soluble

**Q.** What about the Solubility (in water) of the same compound?
**A.** practically insoluble

**Q.** With sulfobutylether beta-cyclodextrin as the compound, how does the “Dose with evidence of renal cellular toxicity” value ([1]; animal studies, repeated administration over 1-6 months) read?
**A.** ≥ 160 mg/kg/day

**Q.** And the “Renal function on repeated administration” value ([1]; animal studies, repeated administration, even at much higher doses)?
**A.** renal function was not impaired

**Q.** And the “Renal effect in single-dose studies” value ([1]; animal trials, single-dose up to 2000 mg/kg i.v.)?
**A.** renal tolerance
